Assay results taken from ChEMBL document CHEMBL3046559, “Sterile oat (Avena sterilis L.) cross-resistance profile to ACCase-inhibiting herbicides in Greece” (2012).

Key:
Assay type in all cases: functional
[1] = system: Avena sterilis; assay: Herbicidal activity against Avena sterilis accession P08 assessed as weed survival at 8 times field recommended herbicide dose
[2] = system: Avena sterilis; assay: Herbicidal activity against Avena sterilis accession P15 assessed as weed survival at 8 times field recommended herbicide dose
[3] = system: Avena sterilis; assay: Herbicidal activity against Avena sterilis accession P02 assessed as weed survival at 16 times field recommended herbicide dose
[4] = system: Avena sterilis; assay: Herbicidal activity against Avena sterilis accession P12 assessed as weed survival at 4 times field recommended herbicide dose
[5] = system: Avena sterilis; assay: Herbicidal activity against Avena sterilis accession P01 assessed as weed survival at 4 times field recommended herbicide dose
[6] = system: Avena sterilis; assay: Herbicidal activity against Avena sterilis accession P11 assessed as weed survival at 8 times field recommended herbicide dose
[7] = system: Avena sterilis; assay: Herbicidal activity against Avena sterilis accession P03 assessed as weed survival at 32 times field recommended herbicide dose
[8] = system: Avena sterilis; assay: Herbicidal activity against Avena sterilis accession P07 assessed as induction of weed mortality
[9] = system: Avena sterilis; assay: Herbicidal activity against Avena sterilis accession P11 assessed as induction of weed mortality
[10] = system: Avena sterilis; assay: Herbicidal activity against Avena sterilis accession P16 assessed as weed survival at 1 times field recommended herbicide dose
[11] = system: Avena sterilis; assay: Herbicidal activity against Avena sterilis accession P11 assessed as weed survival at 1 times field recommended herbicide dose
[12] = system: Avena sterilis; assay: Herbicidal activity against Avena sterilis accession P14 assessed as weed survival at 1 times field recommended herbicide dose
[13] = system: Avena sterilis; assay: Herbicidal activity against Avena sterilis accession P02 assessed as induction of weed mortality
[14] = system: Avena sterilis; assay: Herbicidal activity against Avena sterilis accession P13S assessed as weed survival at 1/32 times field recommended herbicide dose
[15] = system: Avena sterilis; assay: Herbicidal activity against Avena sterilis accession P01 assessed as weed survival at 8 times field recommended herbicide dose
[16] = system: Avena sterilis; assay: Herbicidal activity against Avena sterilis accession P09 assessed as weed survival at 4 times field recommended herbicide dose
[17] = system: Avena sterilis; assay: Herbicidal activity against Avena sterilis accession P20 assessed as weed survival at 1 times field recommended herbicide dose
[18] = system: Avena sterilis; assay: Herbicidal activity against Avena sterilis accession P06S assessed as weed survival at 1 times field recommended herbicide dose
[19] = system: Avena sterilis; assay: Herbicidal activity against Avena sterilis accession P04 assessed as weed survival at 16 times field recommended herbicide dose
[20] = system: Avena sterilis; assay: Herbicidal activity against Avena sterilis accession P13S assessed as induction of weed mortality
[21] = system: Avena sterilis; assay: Herbicidal activity against Avena sterilis accession P17 assessed as weed survival at 32 times field recommended herbicide dose
[22] = system: Avena sterilis; assay: Herbicidal activity against Avena sterilis accession P13S assessed as weed survival at 1/4 times field recommended herbicide dose
[23] = system: Avena sterilis; assay: Herbicidal activity against Avena sterilis accession P05 assessed as weed survival at 4 times field recommended herbicide dose
[24] = system: Avena sterilis; assay: Herbicidal activity against Avena sterilis accession P10S assessed as weed survival at 1/8 times field recommended herbicide dose
[25] = system: Avena sterilis; assay: Herbicidal activity against Avena sterilis accession P09 assessed as induction of weed mortality
[26] = system: Avena sterilis; assay: Herbicidal activity against Avena sterilis accession P14 assessed as weed survival at 8 times field recommended herbicide dose
[27] = system: Avena sterilis; assay: Herbicidal activity against Avena sterilis accession P22 assessed as weed survival at 4 times field recommended herbicide dose
[28] = system: Avena sterilis; assay: Herbicidal activity against Avena sterilis accession P16 assessed as weed survival at 8 times field recommended herbicide dose
[29] = system: Avena sterilis; assay: Herbicidal activity against Avena sterilis accession P03 assessed as weed survival at 1 times field recommended herbicide dose
[30] = system: Avena sterilis; assay: Herbicidal activity against Avena sterilis accession P11 assessed as weed survival at 32 times field recommended herbicide dose
[31] = system: Avena sterilis; assay: Herbicidal activity against Avena sterilis accession P13S assessed as weed survival at 1 times field recommended herbicide dose
[32] = system: Avena sterilis; assay: Herbicidal activity against Avena sterilis accession P14 assessed as weed survival at 4 times field recommended herbicide dose
[33] = system: Avena sterilis; assay: Herbicidal activity against Avena sterilis accession P15 assessed as weed survival at 4 times field recommended herbicide dose
[34] = system: Avena sterilis; assay: Herbicidal activity against Avena sterilis accession P07 assessed as weed survival at 4 times field recommended herbicide dose
[35] = system: Avena sterilis; assay: Herbicidal activity against Avena sterilis accession P13S assessed as weed survival at 1/8 times field recommended herbicide dose
[36] = system: Avena sterilis; assay: Herbicidal activity against Avena sterilis accession P09 assessed as weed survival at 32 times field recommended herbicide dose
[37] = system: Avena sterilis; assay: Herbicidal activity against Avena sterilis accession P11 assessed as weed survival at 4 times field recommended herbicide dose
[38] = system: Avena sterilis; assay: Herbicidal activity against Avena sterilis accession P02 assessed as weed survival at 8 times field recommended herbicide dose
[39] = system: Avena sterilis; assay: Herbicidal activity against Avena sterilis accession P01 assessed as weed survival at 32 times field recommended herbicide dose
[40] = system: Avena sterilis; assay: Herbicidal activity against Avena sterilis accession P03 assessed as weed survival at 4 times field recommended herbicide dose
[41] = system: Avena sterilis; assay: Herbicidal activity against Avena sterilis accession P01 assessed as induction of weed mortality
[42] = system: Avena sterilis; assay: Herbicidal activity against Avena sterilis accession P16 assessed as induction of weed mortality
[43] = system: Avena sterilis; assay: Herbicidal activity against Avena sterilis accession P21S assessed as weed survival at 1/32 times field recommended herbicide dose
[44] = system: Avena sterilis; assay: Herbicidal activity against Avena sterilis accession P20 assessed as induction of weed mortality
[45] = system: Avena sterilis; assay: Herbicidal activity against Avena sterilis accession P22 assessed as weed survival at 1 times field recommended herbicide dose
[46] = system: Avena sterilis; assay: Herbicidal activity against Avena sterilis accession P02 assessed as weed survival at 4 times field recommended herbicide dose
[47] = system: Avena sterilis; assay: Herbicidal activity against Avena sterilis accession P20 assessed as weed survival at 4 times field recommended herbicide dose
[48] = system: Avena sterilis; assay: Herbicidal activity against Avena sterilis accession P19S assessed as weed survival at 1/32 times field recommended herbicide dose
[49] = system: Avena sterilis; assay: Herbicidal activity against Avena sterilis accession P08 assessed as induction of weed mortality
[50] = system: Avena sterilis; assay: Herbicidal activity against Avena sterilis accession P10S assessed as weed survival at 1/16 times field recommended herbicide dose
[51] = system: Avena sterilis; assay: Herbicidal activity against Avena sterilis accession P08 assessed as weed survival at 16 times field recommended herbicide dose
[52] = system: Avena sterilis; assay: Herbicidal activity against Avena sterilis accession P16 assessed as weed survival at 32 times field recommended herbicide dose
[53] = system: Avena sterilis; assay: Herbicidal activity against Avena sterilis accession P22 assessed as weed survival at 8 times field recommended herbicide dose
[54] = system: Avena sterilis; assay: Herbicidal activity against Avena sterilis accession P20 assessed as weed survival at 32 times field recommended herbicide dose
[55] = system: Avena sterilis; assay: Herbicidal activity against Avena sterilis accession P12 assessed as weed survival at 16 times field recommended herbicide dose
[56] = system: Avena sterilis; assay: Herbicidal activity against Avena sterilis accession P08 assessed as weed survival at 1 times field recommended herbicide dose
[57] = system: Avena sterilis; assay: Herbicidal activity against Avena sterilis accession P10S assessed as weed survival at 1/4 times field recommended herbicide dose
[58] = system: Avena sterilis; assay: Herbicidal activity against Avena sterilis accession P20 assessed as weed survival at 8 times field recommended herbicide dose

SMILES: C#CCOC(=O)[C@@H](C)Oc1ccc(Oc2ncc(Cl)cc2F)cc1 [CLODINAFOP PROPARGYL]
- Survival [1]: 93%
- Survival [2]: 100%
- Survival [3]: 93%
- Survival [4]: 97%
- Survival [5]: 87%
- Survival [6]: 100%
- Survival [7]: 73%
- GR50 [8]: <41 gAi/ha
- GR50 [9]: >1312 gAi/ha
- Survival [10]: 93%
- Survival [11]: 100%
- Survival [12]: 97%
- GR50 [13]: >1312 gAi/ha
- Survival [14]: 80%
- Survival [15]: 80%
- Survival [16]: 20%
- Survival [17]: 93%
- Survival [18]: 0%
- Survival [19]: 73%
- GR50 [20]: 5 gAi/ha
- Survival [21]: 20%
- Survival [22]: 10%
- Survival [23]: 47%
- Survival [24]: 77%
- GR50 [25]: 46 gAi/ha
- Survival [26]: 80%
- Survival [27]: 43%
- Survival [28]: 20%
- Survival [29]: 100%
- Survival [30]: 93%
- Survival [31]: 0%
- Survival [32]: 87%
- Survival [33]: 100%
- Survival [34]: 0%
- Survival [35]: 63%
- Survival [36]: 0%
- Survival [37]: 97%
- Survival [38]: 97%
- Survival [39]: 40%
- Survival [40]: 100%
- GR50 [41]: 1053 gAi/ha
- GR50 [42]: 169 gAi/ha
- Survival [43]: 97%
- GR50 [44]: 508 gAi/ha
- Survival [45]: 90%
- Survival [46]: 100%
- Survival [47]: 73%
- Survival [48]: 100%
- GR50 [49]: >1312 gAi/ha
- Survival [50]: 80%
- Survival [51]: 73%
- Survival [52]: 0%
- Survival [53]: 20%
- Survival [54]: 27%
- Survival [55]: 83%
- Survival [56]: 100%
- Survival [57]: 40%
- Survival [58]: 60%

SMILES: COC(=O)C(C)Oc1ccc(Oc2ccc(Cl)cc2Cl)cc1 (centres undefined) [DICLOFOP-METHYL]
- Survival [1]: 60%
- Survival [2]: 80%
- Survival [3]: 70%
- Survival [4]: 80%
- Survival [5]: 87%
- Survival [6]: 73%
- Survival [7]: 40%
- GR50 [8]: 3737 gAi/ha
- GR50 [9]: >22740 gAi/ha
- Survival [10]: 80%
- Survival [11]: 100%
- Survival [12]: 90%
- GR50 [13]: >22740 gAi/ha
- Survival [14]: 100%
- Survival [15]: 80%
- Survival [16]: 80%
- Survival [17]: 100%
- Survival [18]: 40%
- Survival [19]: 53%
- GR50 [20]: 509 gAi/ha
- Survival [21]: 20%
- Survival [22]: 80%
- Survival [23]: 70%
- Survival [24]: 97%
- GR50 [25]: 14176 gAi/ha
- Survival [26]: 60%
- Survival [27]: 63%
- Survival [28]: 53%
- Survival [29]: 100%
- Survival [30]: 63%
- Survival [31]: 40%
- Survival [32]: 77%
- Survival [33]: 100%
- Survival [34]: 60%
- Survival [35]: 83%
- Survival [36]: 40%
- Survival [37]: 90%
- Survival [38]: 80%
- Survival [39]: 50%
- Survival [40]: 93%
- GR50 [41]: 21999 gAi/ha
- GR50 [42]: 5442 gAi/ha
- Survival [43]: 100%
- GR50 [44]: >22740 gAi/ha
- Survival [45]: 97%
- Survival [46]: 97%
- Survival [47]: 100%
- Survival [48]: 100%
- GR50 [49]: 11354 gAi/ha
- Survival [50]: 97%
- Survival [51]: 53%
- Survival [52]: 20%
- Survival [53]: 40%
- Survival [54]: 70%
- Survival [55]: 63%
- Survival [56]: 97%
- Survival [57]: 90%
- Survival [58]: 80%

SMILES: CCOC(=O)[C@@H](C)Oc1ccc(Oc2nc3ccc(Cl)cc3o2)cc1 [FENOXAPROP-P-ETHYL]
- Survival [1]: 63%
- Survival [2]: 70%
- Survival [3]: 67%
- Survival [4]: 80%
- Survival [5]: 73%
- Survival [6]: 77%
- Survival [7]: 37%
- GR50 [8]: >2640 gAi/ha
- GR50 [9]: 2261 gAi/ha
- Survival [10]: 93%
- Survival [11]: 97%
- Survival [12]: 57%
- GR50 [13]: 2070 gAi/ha
- Survival [14]: 90%
- Survival [15]: 40%
- Survival [16]: 80%
- Survival [17]: 97%
- Survival [18]: 0%
- Survival [19]: 37%
- GR50 [20]: 18 gAi/ha
- Survival [21]: 0%
- Survival [22]: 43%
- Survival [23]: 25%
- Survival [24]: 80%
- GR50 [25]: 2121 gAi/ha
- Survival [26]: 27%
- Survival [27]: 40%
- Survival [28]: 20%
- Survival [29]: 97%
- Survival [30]: 50%
- Survival [31]: 0%
- Survival [32]: 43%
- Survival [33]: 100%
- Survival [34]: 77%
- Survival [35]: 80%
- Survival [36]: 40%
- Survival [37]: 83%
- Survival [38]: 93%
- Survival [39]: 20%
- Survival [40]: 50%
- GR50 [41]: 600 gAi/ha
- GR50 [42]: 505 gAi/ha
- Survival [43]: 97%
- GR50 [44]: >2640 gAi/ha
- Survival [45]: 87%
- Survival [46]: 100%
- Survival [47]: 100%
- Survival [48]: 93%
- GR50 [49]: 854 gAi/ha
- Survival [50]: 87%
- Survival [51]: 30%
- Survival [52]: 0%
- Survival [53]: 7%
- Survival [54]: 53%
- Survival [55]: 50%
- Survival [56]: 100%
- Survival [57]: 30%
- Survival [58]: 90%
